PubChem BioAssay (NCI)
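Values below derive from 48-hour exposures of cells grown in 96-well plates, with endpoints linearly interpolated between the two concentrations bracketing the appropriate inhibition level. TGI denotes the concentration required for complete inhibition of growth.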

Legend:
Assay in all cases: NCI-60 cell line screen, 48 h
MOLT-4 leukemia = tested on: MOLT-4 leukemia
OVCAR-8 ovarian = tested on: OVCAR-8 ovarian
MDA-MB-231 breast = tested on: MDA-MB-231 breast
SF-539 CNS = tested on: SF-539 CNS
SK-MEL-2 melanoma = tested on: SK-MEL-2 melanoma
EKVX NSCLC = tested on: EKVX NSCLC
DU-145 prostate = tested on: DU-145 prostate
UACC-62 melanoma = tested on: UACC-62 melanoma
LOX IMVI melanoma = tested on: LOX IMVI melanoma
CAKI-1 renal = tested on: CAKI-1 renal
SF-268 CNS = tested on: SF-268 CNS
BT-549 breast = tested on: BT-549 breast

Row | Compound | TGI (MOLT-4 leukemia) [µM] | TGI (OVCAR-8 ovarian) [µM] | TGI (MDA-MB-231 breast) [µM] | TGI (SF-539 CNS) [µM] | TGI (SK-MEL-2 melanoma) [µM] | TGI (EKVX NSCLC) [µM] | TGI (DU-145 prostate) [µM] | TGI (UACC-62 melanoma) [µM] | TGI (LOX IMVI melanoma) [µM] | TGI (CAKI-1 renal) [µM] | TGI (SF-268 CNS) [µM] | TGI (BT-549 breast) [µM]
1 | CN(C(=O)C12C3C4C1C1C2C3C41C(=O)O)C(C)(C)C (centres undefined) | > 100 | > 100 | > 100 | > 100 | > 100 | > 100 | > 100 | > 100 | > 100 | > 100 | > 100 | > 100
2 | C(=C\c1ccccc1)/Cn1nc(-c2ccccc2)nc1-c1cnccn1 | > 100 | > 100 | > 100 | > 100 | – | > 100 | > 100 | > 100 | > 100 | – | > 100 | > 100
3 | COc1ccc(-c2cc(-c3ccccc3)c3c(n2)-c2ccccc2NC(=O)C3)cc1 | – | 30.1 | > 100 | > 100 | > 100 | > 100 | > 100 | > 100 | > 100 | > 100 | > 100 | > 100
4 | COc1ccccc1-c1n[nH]c(-c2ccccc2O)n1 | > 100 | > 100 | > 100 | > 100 | > 100 | – | > 100 | > 100 | > 100 | > 100 | > 100 | > 100
5 | COC(=O)/C=C/COCC1C2CCC(=O)C21 (centres undefined) | > 100 | > 100 | > 100 | > 100 | > 100 | > 100 | > 100 | > 100 | > 100 | 51.5 | > 100 | > 100
6 | CCOC(=O)c1nc2cc(F)c(F)cc2nc1NCc1cc(OC)c(OC)c(OC)c1 | > 100 | > 100 | – | > 100 | > 100 | > 100 | > 100 | > 100 | > 100 | > 100 | > 100 | > 100
7 | O=S(=O)(O)c1cc(S(=O)(=O)O)c2c(N=Nc3ccccc3)c(O)ccc2c1 | > 100 | > 100 | > 100 | – | > 100 | – | > 100 | > 100 | > 100 | > 100 | > 100 | > 100
8 | COC(=O)C1=C(C(=O)OC)C2(c3ccccc3)c3ccccc3C(=O)C1N2C1CCCCC1 (centres undefined) | > 81.4 | > 100 | > 100 | > 100 | > 100 | > 100 | > 100 | > 100 | > 100 | > 100 | > 100 | > 100
9 | COc1nc(N)nc2c1n(C)c[n+]2C | > 100 | > 100 | > 100 | > 100 | > 100 | > 100 | > 100 | > 100 | > 100 | > 100 | > 100 | > 100
10 | N#Cc1c(Cl)cccc1Oc1ccc(S(=O)(=O)/N=C(\NO)Nc2ccc(Cl)cc2)cc1 | 44.1 | 43.5 | 37.4 | 32.3 | 38.5 | 29 | 32.9 | 29.3 | 32 | 29.2 | 46.9 | 30.9
11 | [N-]=[N+]=NC1(c2ccccc2)C(=O)c2cccc3c4ccccc4n(c23)C1=O (centres undefined) | > 100 | > 100 | > 100 | > 100 | > 100 | > 100 | > 100 | > 100 | > 100 | > 100 | > 100 | > 100
12 | CCOC(=O)N(C)CCC1CC=CC(=O)C1c1cccc(OC)c1OC (centres undefined) | 64.5 | > 100 | > 100 | > 100 | 35 | 89.8 | 44.4 | 32.5 | > 100 | 91.6 | 60 | 34.3
13 | c1ccc2nc3c(nc2c1)sc1nc2ccccc2n13 | > 100 | > 100 | > 100 | > 100 | – | > 100 | > 100 | > 100 | > 100 | > 100 | > 100 | > 100
14 | CCOC(=O)C(C)c1nc2cc(F)c(N3CCOCC3)cc2[nH]c1=O (centres undefined) | > 100 | > 100 | > 100 | > 100 | > 100 | > 100 | > 100 | > 100 | – | > 100 | > 100 | > 100
15 | COc1ccc2c(c1OC)C(Br)CCC(Br)(Br)C2=O (centres undefined) | 8.32 | 21.9 | 29.9 | 11.7 | 28 | 29.4 | 24.9 | 27.7 | 10.8 | 3.24 | 27.4 | 20.3
16 | COc1ccc(OC)c2sc(N3C(=O)/C(=C/c4ccc(N(C)C)cc4)N=C3c3ccccc3)nc12 | 65.7 | > 100 | > 100 | > 100 | > 100 | > 100 | > 100 | > 100 | > 100 | > 100 | > 100 | > 100
17 | O=[N+]([O-])/C(C(Cl)=C(Cl)Cl)=C(\Nc1cccc2cccnc12)Sc1ccccc1 | 37.4 | – | > 100 | 40.4 | 82.5 | > 100 | 78.4 | 88.4 | – | 46.7 | 42 | 48
18 | Nc1nc([O-])c([I+]c2ccccc2)c(=O)[nH]1 | > 100 | > 100 | > 100 | > 100 | – | > 100 | > 100 | – | > 100 | > 100 | > 100 | > 100
19 | CCOC(=O)Nn1cnnc1Cc1ccccc1 | > 100 | > 100 | > 100 | > 100 | > 100 | > 100 | – | > 100 | > 100 | > 100 | > 100 | > 100
